# Reference: patent US20250114367A1, “METHOD OF TREATING HAIR LOSS DISORDERS” (Sun Pharmaceutical Industries, Inc., priority 2023, published 2025)
# Like-named read-outs stand apart in the source and are kept apart here.
# How the values were obtained:
# Assay type in all cases: in vivo, human
# [1] = Renal impairment study: PK after a single 12 mg oral dose of CTP-543; details: for Tmax / AUC(0-t) / AUC(0-inf) / Cmax / Vd/F / half-life: human, plasma, po, 12 mg; for Tmax / AUC(0-t) / AUC(0-inf) / Cmax / Vd/F / half-life / CL/F (geometric mean) / Clast (geometric mean): single 12 mg oral dose of CTP-543, outlier excluded; for AUC(0-t): read-out: AUC0-Tlast (geometric mean); for AUC(0-inf): read-out: AUC0-inf (geometric mean); for Cmax: read-out: Cmax (geometric mean); for Vd/F: read-out: Vz/F (geometric mean); for half-life: read-out: terminal elimination half-life (geometric mean) (converted)
# Description: The study enrolled 8 subjects in the normal renal function cohort, and 8 subjects in the moderate impaired renal function cohort.
# The primary endpoint of this study was single dose PK exposure parameters: Cmax, AUC(0-Tlast), and AUC(0-∞).
# The secondary endpoints of this study were: • Adverse Events, clinical laboratory findings, physical examinations, ECGs, and vital signs. • Other PK parameters, such as, but not limited to: Tmax, λz, t1/2, CL/F, and Vz/F.
# All subjects had samples collected for PK.
# PK parameters were determined using non-compartmental analysis (NCA) methods based on individual plasma concentration-time data for all PK analytes.
# [2] = tested on: adult subjects with moderate to severe AA; test: Phase III trial: Hospital Anxiety and Depression Scale (HADS); details: for HADS anxiety scale, LS mean change from baseline / HADS anxiety scale, LS mean treatment group difference from placebo / HADS depression scale, LS mean change from baseline / HADS depression scale, LS mean treatment group difference from placebo: Week 24
# Description: The Hospital Anxiety and Depression Scale (HADS) is used to measure anxiety and depression in a general medical population of subjects. HADS comprises of 14 items (7 items each for anxiety and depression), with a score ranging between 0 and 21 for the anxiety and depression subscales. Scores between 8 and 10 indicate a moderate presence of symptoms of anxiety and depression, whereas a score greater than 11 indicates a significant number of symptoms of anxiety and depression that likely correspond with a clinical diagnosis. The total HADS score may be regarded as a global measure of psychological distress (Roberts et al, 2001; Johnston et al, 2000). A negative change in a subject's HADS score from a starting timepoint to an end point during treatment, e.g. from baseline to Week 24 of treatment, indicates an improvement in symptoms of anxiety and depression. The HADS questionnaire was completed by subjects at baseline and Week 24. The term “baseline” as used herein refers to the HADS score (or HADS-A or HADS-D score) determined before administration of Compound (I).
# Approximately 440 adult male and female subjects 18 to 65 years of age, inclusive, with moderate to severe AA participated in the study. Subjects with definitive diagnosis of AA, and at least 50% hair loss, as defined by a SALT score ≥50, who met all of the inclusion criteria and none of the exclusion criteria participated in the study.
# The Screening Period lasted up to 28 days prior to initiation of study drug. […] Randomization was stratified by scalp hair loss into 1 of the following 2 categories: 1) partial scalp hair loss (SALT ≥50 and <95), 2) complete or near complete scalp hair loss (SALT ≥95).
# Additional secondary efficacy endpoints included the following: • Relative change in SALT scores from baseline at Weeks 4, 8, 12, 16, 20, and 24. • Percentage of responders (defined as “much improved” or “very much improved”) using the Clinical Global Impression of Improvement (CGI-I) at Weeks 12, 16, 20, and 24. • Percentage of responders (defined as “much improved” or “very much improved”) using the Patient Global Impression of Improvement (PGI-I) at Weeks 12, 16, 20, and 24. • Change from baseline in the Clinical Global Impression of Severity (CGI-S) at Weeks 12, 16, 20, and 24. • Change from baseline in the Patient Global Impression of Severity (PGI-S) at Weeks 12, 16, 20, and 24. • Change from baseline on the Brigham Eyebrow Tool for Alopecia (BETA) score at Weeks 12 and 24. • Change from baseline on the Brigham Eyelash Tool for Alopecia (BELA) score at Weeks 12 and 24. • Percentage of subjects achieving at least a 75% relative reduction in SALT score from baseline at Weeks 12 and 24. • Percentage of subjects achieving at least a 90% relative reduction in SALT score from baseline at Weeks 12 and 24. • Percentage of responders (defined as “satisfied” or “very satisfied”) on the SPRO scale at Weeks 12, 16, and 20. • Change from baseline in the SPRO scale at Weeks 12, 16, 20, and 24. • Percentage of subjects achieving a ≥2-point change from baseline in the SPRO scale at Weeks 12, 16, 20, and 24. • Change from baseline on the individual items of the Hair Quality Patient Reported Outcome (QPRO) scale at Weeks 12, 16, 20, and 24. • Change from baseline in the depression scale of the Hospital Anxiety and Depression Scale (HADS) at Week 24. • Change from baseline in the anxiety scale of the HADS at Week 24. • Percentage of subjects achieving an absolute SALT score of ≤20 at Week 4. • Percentage of subjects achieving an absolute SALT score of ≤10 at Week 24
# Changes from baseline to Week 24 in the depression scale of subjects who were randomized to treatment with deuruxolitinib 8 mg twice daily (BID), deuruxolitinib 12 mg BID, or placebo for 24 weeks were measured. Subjects completed the HADS 14-item questionnaire with 7 items for anxiety (HADS-A) and 7 items for depression (HADS-D).
# subjects with AA = test: SALT change at week 8, 8 mg BID versus 16 mg once daily
# Protocol: A decrease in SALT score indicates increased hair growth. Decreases in the LS mean SALT scores were initially observed at Week 4. […] At week 8, the LS mean change from baseline SALT score was higher in subjects treated with deuruxolitinib 8 mg BID (8.6%) than in subjects treated with 16 mg once daily (QD) (2.7%).
# [3] = compared to healthy control subjects
# [4] = moderate renal impairment N = 7
smiles,measurement,setting,value
"[2H]C1([2H])C([C@@H](CC#N)n2cc(-c3ncnc4[nH]ccc34)cn2)C([2H])([2H])C([2H])([2H])C1([2H])[2H] [CTP-543, (R)-3-(4-(7H-pyrrolo[2,3-d]pyrimidin-4-yl)-1H-pyrazol-1-yl)-3-(cyclopentyl-2,2,3,3,4,4,5,5-d8) propanenitrile]",effect of moderate renal impairment on Cmax,[1]; [3],without altering Cmax
same,increase of plasma AUC by moderate renal impairment,[1]; [3],approximately 24%
same,Tmax,[1]; [4],0.5 h
same,AUC(0-t),[1]; [4],1040 ng·h/mL
same,AUC(0-inf),[1]; [4],1050 ng·h/mL
same,Cmax,[1]; [4],207 ng/mL
same,Vd/F,[1]; [4],72.1 L
same,half-life,[1]; [4],4.36 h
same,Tmax,[1]; normal renal function N = 8,0.71 h
same,AUC(0-t),[1]; normal renal function N = 8,836 ng·h/mL
same,AUC(0-inf),[1]; normal renal function N = 8,843 ng·h/mL
same,Cmax,[1]; normal renal function N = 8,199 ng/mL
same,Vd/F,[1]; normal renal function N = 8,85.6 L
same,half-life,[1]; normal renal function N = 8,4.17 h
same,CL/F (geometric mean),[1]; [4],11.3 L/h
same,Clast (geometric mean),[1]; [4],0.977 ng/mL
same,CL/F (geometric mean),[1]; normal renal function N = 8,14.2 L/h
same,Clast (geometric mean),[1]; normal renal function N = 8,0.698 ng/mL
same,"HADS anxiety scale, LS mean change from baseline",[2]; 8 mg BID,−1.1
same,"HADS anxiety scale, LS mean treatment group difference from placebo",[2]; 8 mg BID,0.5
same,"HADS depression scale, LS mean change from baseline",[2]; 8 mg BID,−1.2
same,"HADS depression scale, LS mean treatment group difference from placebo",[2]; 8 mg BID,0.8
same,"HADS anxiety scale, LS mean change from baseline",[2]; 12 mg BID,−0.9
same,"HADS anxiety scale, LS mean treatment group difference from placebo",[2]; 12 mg BID,0.2
same,"HADS depression scale, LS mean change from baseline",[2]; 12 mg BID,−1.5
same,"HADS depression scale, LS mean treatment group difference from placebo",[2]; 12 mg BID,1.1
same,subjects achieving a ≥3-point improvement in the HADS-D score,"[2]; baseline to Week 24, 8 mg BID",26.2%
same,subjects achieving a ≥4-point improvement in the HADS-A score,"[2]; baseline to Week 24, 8 mg BID",18.9%
same,LS mean change from baseline SALT score,subjects with AA; 8 mg BID,8.6%
same,LS mean change from baseline SALT score,subjects with AA; 16 mg once daily (QD),2.7%
